# Key:
# HDAC6 = molecular target: T1, HDAC6 (Homo sapiens, UniProt Q9UBN7); experiment: HDAC inhibition, HDAC6; assay type: biochemical
# T1 sequence (Q9UBN7 1-1215): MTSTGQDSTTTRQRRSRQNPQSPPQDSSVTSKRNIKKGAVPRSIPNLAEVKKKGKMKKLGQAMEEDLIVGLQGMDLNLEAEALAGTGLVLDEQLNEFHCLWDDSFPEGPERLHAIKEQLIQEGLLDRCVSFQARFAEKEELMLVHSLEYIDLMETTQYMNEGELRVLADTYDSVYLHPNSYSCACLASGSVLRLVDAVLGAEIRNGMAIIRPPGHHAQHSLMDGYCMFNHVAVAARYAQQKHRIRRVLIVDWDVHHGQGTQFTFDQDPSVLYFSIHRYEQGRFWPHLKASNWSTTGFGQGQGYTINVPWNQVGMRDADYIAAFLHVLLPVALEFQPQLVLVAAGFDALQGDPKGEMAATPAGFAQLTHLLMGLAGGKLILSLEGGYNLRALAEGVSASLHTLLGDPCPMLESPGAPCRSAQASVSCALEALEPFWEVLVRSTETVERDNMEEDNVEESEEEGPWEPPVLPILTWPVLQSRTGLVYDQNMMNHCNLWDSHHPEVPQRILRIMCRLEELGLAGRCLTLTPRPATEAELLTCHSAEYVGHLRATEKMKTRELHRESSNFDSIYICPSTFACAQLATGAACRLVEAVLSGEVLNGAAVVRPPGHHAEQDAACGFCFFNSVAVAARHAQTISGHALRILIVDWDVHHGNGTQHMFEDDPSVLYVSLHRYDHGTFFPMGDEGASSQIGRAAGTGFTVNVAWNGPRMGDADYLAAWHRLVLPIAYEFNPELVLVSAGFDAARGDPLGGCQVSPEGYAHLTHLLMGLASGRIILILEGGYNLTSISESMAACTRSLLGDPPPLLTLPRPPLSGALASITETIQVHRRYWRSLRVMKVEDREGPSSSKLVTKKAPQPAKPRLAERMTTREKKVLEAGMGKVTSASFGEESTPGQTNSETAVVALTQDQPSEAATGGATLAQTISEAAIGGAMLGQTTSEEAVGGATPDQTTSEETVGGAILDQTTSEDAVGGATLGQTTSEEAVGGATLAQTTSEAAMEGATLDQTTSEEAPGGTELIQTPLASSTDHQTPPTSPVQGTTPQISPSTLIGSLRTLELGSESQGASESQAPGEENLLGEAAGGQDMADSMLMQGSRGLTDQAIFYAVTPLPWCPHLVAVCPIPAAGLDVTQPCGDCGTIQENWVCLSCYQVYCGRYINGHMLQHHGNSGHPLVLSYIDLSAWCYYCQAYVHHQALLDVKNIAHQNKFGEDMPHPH
# HDAC2 = HDAC2 (Homo sapiens, UniProt Q92769); experiment: HDAC inhibition, HDAC2; assay type: biochemical
# Vero cell line = experiment: Apoptosis via caspase 3 activation (Western blot) in Vero; assay type: cell-based; settings: Vero (non-transformed model), 18 h; STR compounds 10 and 20 μM, SAHA 5 μM (FIG. 3)
# Protocol: Actin was used to control for protein loading. Cells were treated with DMSO or 0.1% DMSO solution of SAHA (5 μM), STR-V-53 (10 and 20 μM), or STR-I-195 (10 and 20 μM) for 18 h. Quantification of gel bands are shown below the gel.
# Hep-G2 [1] = experiment: Cytotoxicity with GLUT2 blockage by Phloretin in Hep-G2; assay type: cell-based; settings: Hep-G2 treated with Phloretin 24 h prior to incubation (FIG. 5)
# Protocol: Hep-G2 and VERO were treated with Phloretin (Ph) for 24 h prior to incubation with STR-V-53 or SAHA. (a) Hep-G2 treated by STR-V-53 with or without Ph. (b) Hep-G2 treated by SAHA with or without Ph. (c) VERO treated by STR-V-53 with or without Ph. (d) VERO treated with SAHA with or without Ph.
# Hep-G2 cell line = experiment: Apoptosis via caspase 3 activation (Western blot) in Hep-G2; assay type: cell-based; settings: Hep-G2, 18 h; STR compounds 10 and 20 μM, SAHA 5 μM (FIG. 2)
# Protocol: Actin was used to control for protein loading. Cells were treated with DMSO or 0.1% DMSO solution of SAHA (5 μM), STR-V-53 (10 and 20 μM), or STR-I-195 (10 and 20 μM) for 18 h. (a) Cropped gel image showing upregulation on cleaved caspase 3 (clv-caspase 3) relative to the DMSO control. (b) Quantification of relative levels of clv-caspase 3. (Bars show mean plus standard deviation; *P<0.0332; **P<0.0021; ***P<0.0002; ****P<[…]).
# Hep-G2 [2] = experiment: Cell cycle analysis in Hep-G2; assay type: cell-based; settings: Hep-G2, 15 μM, 48 h (FIG. 4)
# Protocol: Hep-G2 was cultured in all) cm petri dish until 80% confluence. The cell was serum starved overnight before drug treatment. Subsequently, cells were treated with 10 mL of 0.1% DMSO medium, 0.1% DMSO solution of SAHA (5 μM) or STR-V-53 (15 μM), respectively for 48 h. (a) The control group of Hep-G2 (1); SAHA (5 μM) treated group (2); and STR-V-53 (15 μM) treated group (3). […] (b) Cell distribution in each stage. (c) Analysis of the percentage cell population in cell cycle stages.
# HDAC1 = HDAC1 (Homo sapiens, UniProt Q13547); experiment: HDAC inhibition, HDAC1; assay type: biochemical
# HDAC8 = molecular target: T2, HDAC8 (Homo sapiens, UniProt Q9BY41); experiment: HDAC inhibition, HDAC8; assay type: biochemical
# T2 sequence (Q9BY41 1-377): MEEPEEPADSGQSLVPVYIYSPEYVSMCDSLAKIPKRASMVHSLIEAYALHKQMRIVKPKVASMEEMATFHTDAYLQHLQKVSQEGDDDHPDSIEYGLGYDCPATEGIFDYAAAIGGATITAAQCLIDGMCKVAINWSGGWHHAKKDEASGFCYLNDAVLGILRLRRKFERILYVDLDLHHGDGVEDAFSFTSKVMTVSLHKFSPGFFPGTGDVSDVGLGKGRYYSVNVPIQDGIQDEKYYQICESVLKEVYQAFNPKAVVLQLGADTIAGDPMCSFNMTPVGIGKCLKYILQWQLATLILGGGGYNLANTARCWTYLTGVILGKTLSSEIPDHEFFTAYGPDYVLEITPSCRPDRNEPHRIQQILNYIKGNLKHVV
# [3] = test system: acetylated tubulin and histone H4; experiment: Western blot of on-target effect (HDAC inhibition) in Hep-G2 cells; assay type: cell-based; settings: Hep-G2, 1.25 and 2.5 μM, 5 h, Western blot (FIG. 1)
# Protocol: SAHA was used as positive control while GAPDH was used to control for protein loading. (1a) Hep-G2 treated with DMSO or 0.1% DMSO solution of SAHA (1.25 μM), STR-V-114 (1.25 μM, 2.5 μM) and STR-V-53 (1.25 μM, 2.5 μM). (1b) Hep-G2 treated with DMSO or 0.1% DMSO solution of SAHA (0.5 μM, 1.25 μM) and STR-I-195 (1.25 μM, 2.5 μM). Cell were treated for 5 h before lysis. Quantifications of gel bands are shown below each gel.
# Sequence of HDAC1 (Q13547 whole entry): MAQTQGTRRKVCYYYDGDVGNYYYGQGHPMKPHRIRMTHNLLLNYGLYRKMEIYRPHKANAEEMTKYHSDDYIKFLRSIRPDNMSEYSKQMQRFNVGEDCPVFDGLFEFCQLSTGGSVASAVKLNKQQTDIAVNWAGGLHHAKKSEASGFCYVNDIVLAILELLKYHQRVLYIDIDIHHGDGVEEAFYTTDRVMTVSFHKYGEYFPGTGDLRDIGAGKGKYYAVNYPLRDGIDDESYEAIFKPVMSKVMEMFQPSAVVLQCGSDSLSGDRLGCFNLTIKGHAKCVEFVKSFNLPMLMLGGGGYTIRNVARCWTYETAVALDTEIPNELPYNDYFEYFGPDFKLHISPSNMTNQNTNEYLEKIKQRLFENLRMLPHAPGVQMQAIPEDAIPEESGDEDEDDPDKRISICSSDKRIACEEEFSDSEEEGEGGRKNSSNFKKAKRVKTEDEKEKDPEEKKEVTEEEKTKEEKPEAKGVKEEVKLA
# Sequence of HDAC2 (Q92769 whole entry): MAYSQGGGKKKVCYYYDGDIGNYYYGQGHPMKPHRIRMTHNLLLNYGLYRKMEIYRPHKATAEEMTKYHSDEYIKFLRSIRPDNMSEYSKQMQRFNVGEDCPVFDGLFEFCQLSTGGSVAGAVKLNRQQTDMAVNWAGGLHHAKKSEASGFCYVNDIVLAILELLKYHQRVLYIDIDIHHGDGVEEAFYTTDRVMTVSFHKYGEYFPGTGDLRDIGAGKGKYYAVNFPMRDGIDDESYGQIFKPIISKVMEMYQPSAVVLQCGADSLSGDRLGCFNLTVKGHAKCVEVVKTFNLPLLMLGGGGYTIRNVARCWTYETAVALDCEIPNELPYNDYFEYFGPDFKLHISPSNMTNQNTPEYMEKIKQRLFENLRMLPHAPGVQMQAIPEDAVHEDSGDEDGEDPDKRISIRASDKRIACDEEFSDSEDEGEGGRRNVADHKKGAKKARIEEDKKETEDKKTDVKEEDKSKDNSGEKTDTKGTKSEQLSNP
SMILES,IC50 (HDAC6),IC50 (HDAC2),apoptosis (clv-caspase 3) (Vero cell line),effect of GLUT2 blockage on cytotoxicity (Hep-G2 [1]),apoptosis via caspase 3 activation (clv-caspase 3) (Hep-G2 cell line),effect on cell cycle (Hep-G2 [2]),IC50 (HDAC1),IC50 (HDAC8),on-target effect (HDAC inhibition): acetylated tubulin and histone H4 levels [3]
O=C(CCCCCCn1cc(-c2ccc(O[C@H]3O[C@H](CO)[C@@H](O)[C@H](O)[C@H]3O)cc2)nn1)NO [STR-V-53],3.43 nM,60.1 nM,did not induce apoptosis,attenuates the cytotoxicity,induced apoptosis,cell cycle arrest,24.3 nM,843 nM,upregulation of acetylated tubulin and histone H4
"O=C(CCCCCCn1cc(-c2ccc(OC3O[C@H](CO)[C@@H](O)[C@H](O)C3O)cc2)nn1)NO (stereo in doubt) [STR-I-195, N-hydroxy-7-(4-(4-(((2S,3R,4S,5S,6R)-3,4,5-trihydroxy-6-(hydroxymethyl)-tetrahydro-2H-pyran-2-yl)oxy)phenyl)-1H-1,2,3-triazol-1-yl)heptanamide]",2.51 nM,29.1 nM,did not induce apoptosis,,induced apoptosis,,14.6 nM,464 nM,upregulation of acetylated tubulin and histone H4
"O=C(CCCCCCn1cc(-c2ccc3cc(O[C@H]4O[C@H](CO)[C@@H](O)[C@H](O)[C@H]4O)ccc3c2)nn1)NO [STR-V-114, N-hydroxy-7-(4-(6-(((2R,3R,4S,5S,6R)-3,4,5-trihydroxy-6-(hydroxymethyl)-tetrahydro-211-pyran-2-yl)oxy)naphthalen-2-yl)-1H-1,2,3-triazol-1-yl)heptanamide]",4.5 nM,61.5 nM,,,,,20.3 nM,2130 nM,upregulation of acetylated tubulin and histone H4
"O=C(CCCCCCC(=O)Nc1ccccc1)NO [SAHA, reference compound]",,,induced apoptosis,,induced apoptosis,,,,

# Source: patent US12617813B2, “Glycosylated histone deacetylase inhibitors and methods of making and using the same” (Georgia Tech Research Corporation, priority 2020, dated 2026)
